Test results taken from US10392404B2, “Compounds and compositions as kinase inhibitors” (NOVARTIS AG, priority 2014, dated 2019).

How the values were obtained:
b-Raf (V600E) = target: T1, b-Raf (V600E) (Homo sapiens, UniProt P15056, V600E); assay: In vitro Raf activity determination (Alpha Screen, biotinylated kinase-dead MEK1 substrate), B-Raf; format: biochemical; conditions: b-Raf (V600E) approximately 4 pM; ATP 10 μM; pre-incubation 60 minutes; reaction 3 hours at room temperature
T1 construct: made in house
T1 sequence (P15056 whole entry V600E): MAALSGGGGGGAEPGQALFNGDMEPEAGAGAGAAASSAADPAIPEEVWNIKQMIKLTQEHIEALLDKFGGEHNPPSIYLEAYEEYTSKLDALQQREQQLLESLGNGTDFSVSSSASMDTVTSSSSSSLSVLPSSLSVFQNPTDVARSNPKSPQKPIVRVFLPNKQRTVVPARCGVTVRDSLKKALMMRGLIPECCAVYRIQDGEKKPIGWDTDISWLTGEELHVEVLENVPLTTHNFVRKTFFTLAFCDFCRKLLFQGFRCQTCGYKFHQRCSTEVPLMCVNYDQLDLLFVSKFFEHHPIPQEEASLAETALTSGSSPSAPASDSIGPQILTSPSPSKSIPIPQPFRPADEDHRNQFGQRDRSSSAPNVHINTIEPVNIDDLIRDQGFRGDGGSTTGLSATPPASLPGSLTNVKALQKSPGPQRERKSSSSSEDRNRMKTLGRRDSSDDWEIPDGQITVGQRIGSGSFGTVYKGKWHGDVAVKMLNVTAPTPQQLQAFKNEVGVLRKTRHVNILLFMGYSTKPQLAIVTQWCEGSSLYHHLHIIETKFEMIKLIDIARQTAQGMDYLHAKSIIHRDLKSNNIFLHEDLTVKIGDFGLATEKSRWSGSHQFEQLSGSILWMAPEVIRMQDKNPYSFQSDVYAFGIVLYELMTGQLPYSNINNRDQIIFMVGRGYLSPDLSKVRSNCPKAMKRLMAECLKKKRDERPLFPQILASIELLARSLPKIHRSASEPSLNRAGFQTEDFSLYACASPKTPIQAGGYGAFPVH
Description: (§1) Full length MEK1 with an inactivating K97R ATP binding site mutation is utilized as a RAF substrate. The MEK1 cDNA was subcloned with an N-terminal (his)6 tag into a vector for E. Coli expression. The MEK1 substrate was purified from E. Coli lysate by nickel affinity chromatography followed by anion exchange. The final MEK1 preparation was biotinylated (Pierce EZ-Link Sulfo-NHS-LC-Biotin) and concentrated.
(§2) Assay Materials: Assay buffer is 50 mM Tris, pH 7.5, 15 mM MgCl2, 0.01% Bovine Serum Albumin (BSA) and 1 mM dithiothreitol (DTT); Stop buffer is 60 mM ethylenediaminetetraacetic acid (EDTA) and 0.01% Tween® 20; b-Raf (V600E), active; biotinylated Mek, kinase dead; Alpha Screen detection kit (available from PerkinElmer™, #6760617R); Anti phospho-MEK1/2 (available from Cell Signaling Technology, Inc. #9121); 384 well low volume assay plates (White Greiner® plates).
(§3) Assay conditions: b-Raf (V600E) approximately 4 pM; c-Raf approximately 4 nM; biotinylated Mek, kinase dead approximately 10 nM; ATP 10 μM for BRAF (V600E) and 1 μM for CRAF; Pre-incubation time with compounds 60 minutes at room temperature; Reaction time 1 or 3 hours at room temperature.
(§4) Assay protocol: Raf and biotinylated Mek (kinase dead) were combined at 2× final concentrations in assay buffer (50 mM Tris, pH 7.5, 15 mM MgCl2, 0.01% BSA and 1 mM DTT) and dispensed […] per well in assay plates (Greiner white 384 well assay plates #781207) containing […] of 40× of a Raf kinase inhibitor test compound diluted in 100% DMSO. The plate was incubated for 60 minutes at room temperature. The Raf kinase activity reaction was started by the addition of […] per well of 2×ATP diluted in assay buffer. After 3 hours (b-Raf(V600E)) or 1 hour (c-Raf). The reactions were stopped and the phosphorylated product was measured using a rabbit anti-p-MEK (Cell Signaling, #9121) antibody and the Alpha Screen IgG (ProteinA) detection Kit (PerkinElmer #6760617R), by the addition of […] to the well of a mixture of the antibody (1:2000 dilution) and detection beads (1:2000 dilution of both beads) in Stop/bead buffer (25 mM EDTA, 50 mM Tris, pH 7.5, 0.01% Tween20). The additions were carried out under dark conditions to protect the detection beads from light. A lid was placed on top of the plate and incubated for 1 hour at room temperature, after which the luminescence was read on a PerkinElmer Envision instrument. The concentration of each compound for 50% inhibition (IC50) was calculated by non-linear regression using XL Fit data analysis software.

C-RAF = target: T2, C-RAF (Homo sapiens, UniProt P04049, Y340E/Y341E); assay: In vitro Raf activity determination (Alpha Screen, biotinylated kinase-dead MEK1 substrate), C-Raf; format: biochemical; conditions: c-Raf approximately 4 nM; ATP 1 μM; pre-incubation 60 minutes; reaction 1 hour at room temperature
T2 construct: His tag (implied by nickel chromatography) (cleaved yes); StrepII tag (cleaved yes); made in house; host or cells: Sf9 insect cells (baculovirus), CRAF and h14-3-3 zeta co-expressed; MEK1 substrate from E. coli
T2 sequence (P04049 whole entry Y340E/Y341E): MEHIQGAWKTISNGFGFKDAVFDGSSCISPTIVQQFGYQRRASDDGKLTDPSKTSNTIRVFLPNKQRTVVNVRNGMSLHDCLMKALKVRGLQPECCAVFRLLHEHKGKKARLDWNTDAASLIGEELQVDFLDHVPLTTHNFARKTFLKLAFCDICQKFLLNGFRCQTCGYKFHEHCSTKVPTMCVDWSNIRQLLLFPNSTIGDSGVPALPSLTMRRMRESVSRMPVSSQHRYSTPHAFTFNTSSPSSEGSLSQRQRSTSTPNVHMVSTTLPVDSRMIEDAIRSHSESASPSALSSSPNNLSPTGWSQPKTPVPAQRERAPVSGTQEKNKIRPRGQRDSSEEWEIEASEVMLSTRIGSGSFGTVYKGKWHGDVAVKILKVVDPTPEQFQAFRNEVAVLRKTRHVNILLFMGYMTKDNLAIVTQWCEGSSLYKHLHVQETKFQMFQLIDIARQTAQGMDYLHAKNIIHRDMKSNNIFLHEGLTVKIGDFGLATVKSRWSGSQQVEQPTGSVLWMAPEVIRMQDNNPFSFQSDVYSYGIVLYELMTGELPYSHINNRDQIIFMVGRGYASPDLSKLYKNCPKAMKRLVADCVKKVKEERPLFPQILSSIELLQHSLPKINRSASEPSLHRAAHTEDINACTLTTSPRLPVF
T2 sequence (P63104 whole entry partner): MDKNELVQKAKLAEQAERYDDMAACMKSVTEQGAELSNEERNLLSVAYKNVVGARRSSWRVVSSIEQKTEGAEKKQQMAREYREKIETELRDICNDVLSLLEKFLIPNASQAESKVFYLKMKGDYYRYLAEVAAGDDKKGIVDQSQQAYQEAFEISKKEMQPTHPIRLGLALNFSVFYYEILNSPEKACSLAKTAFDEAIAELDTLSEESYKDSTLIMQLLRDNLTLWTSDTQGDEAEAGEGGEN
Source text: CRAF cDNA was subcloned as full length protein, with Y340E and Y341E activating mutations, into a baculovirus expression vector for Sf9 insect cell expression. h14-3-3 zeta cDNA was subcloned into a baculovirus expression vector for SF9 insect cell expression. Sf9 cells co-expressing both proteins were lysed and subjected to immobilized nickel chromatography and eluted with Imidazole. A second column (StrepII binding column) was used and eluted with desthiobiotin. Protein Tags were removed using Prescission enzyme and the protein was further purified using a flowthrough step to remove tags.
C-Raf TR refers to a truncated C-Raf protein, a Δ1-324 deletion mutant. C-Raf FL refers to the full-length C-Raf protein.
as §1, §2, §3, §4

IC50 (b-Raf (V600E)) [nM]	IC50 (C-RAF) [nM]	SMILES
1.67	0.467	Cc1ccc(NC(=O)c2ccnc(C(C)(C)C#N)c2)cc1-c1cnc(NC(C)C)c(C#N)c1 [Example 20, N-(3-(5-cyano-6-(isopropylamino)pyridin-3-yl)-4-methylphenyl)-2-(2-cyanopropan-2-yl)isonicotinamide]
1	0.304	Cc1ncc(NC(=O)c2cc(C(F)(F)F)ccn2)cc1-c1cnc(N2CCOCC2)c(C#N)c1 [Example 223, N-(5′-cyano-2-methyl-6′-morpholino-[3,3′-bipyridin]-5-yl)-4-(trifluoromethyl) picolinamide]
70.6	11.5	Cc1ncc(NC(=O)c2ccnc(C(C)(C)C#N)c2)cc1-c1cnc(-c2ccnnc2)c(C#N)c1 [Example 115]
33	6.86	Cc1ncc(NC(=O)c2ccnc(C(C)(C)O)c2)cc1-c1cnc(C2CCOCC2)c(C#N)c1 [Example 167, N-(5′-cyano-2-methyl-6′-(tetrahydro-2H-pyran-4-yl)-[3,3′-bipyridin]-5-yl)-2-(2-hydroxypropan-2-yl)isonicotinamide]
5.63	0.842	Cc1ccc(NC(=O)c2cnnc(C(F)(F)F)c2)cc1-c1cnc(N2CCNCC2)c(C#N)c1 [Example 143, N-(3-(5-cyano-6-(piperazin-1-yl)pyridin-3-yl)-4-methylphenyl)-6-(trifluoromethyl) pyridazine-4-carboxamide]
2.05	0.33	Cc1ncc(NC(=O)c2ccnc(C(C)C)c2)cc1-c1cnc(N2CCOCC2)c(C#N)c1 [Example 133, N-(5′-cyano-2-methyl-6′-morpholino-[3,3′-bipyridin]-5-yl)-2-isopropyl-isonicotinamide]
1.63	0.211	Cc1ncc(NC(=O)c2cccc(C(F)(F)F)c2)cc1-c1cnc(N)c(C#N)c1 [Example 4, N-(6′-amino-5′-cyano-2-methyl-[3,3′-bipyridin]-5-yl)-3-(trifluoromethyl) benzamide]
4.74	1.25	Cc1ncc(NC(=O)c2cnnc(C(F)(F)F)c2)cc1-c1cnc(NC2CCOCC2)c(C#N)c1 [Example 175, N-(5′-cyano-2-methyl-6′-((tetrahydro-2H-pyran-4-yl)amino)-[3,3′-bipyridin]-5-yl)-6-(trifluoromethyl) pyridazine-4-carboxamide]
9.79	0.606	Cc1ccc(C(=O)Nc2cccc(C(F)(F)F)c2)cc1-c1cnc(N)c(C#N)c1C [Example 11, 3-(6-amino-5-cyano-4-methylpyridin-3-yl)-4-methyl-N-(3-(trifluoromethyl)phenyl)benzamide]
1.46	0.236	Cc1ncc(NC(=O)c2ccnc(C3CC3)c2)cc1-c1cnc(N2CCOCC2)c(C#N)c1 [Example 134, N-(5′-cyano-2-methyl-6′-morpholino-[3,3′-bipyridin]-5-yl)-2-cyclopropyl-isonicotinamide]
20	2.74	Cc1ncc(NC(=O)c2ccnc(C(C)(C)C#N)c2)cc1-c1cnc(-c2ccn(C)n2)c(C#N)c1 [Example 109, N-(5′-cyano-2-methyl-6′-(1-methyl-1H-pyrazol-3-yl)-[3,3′-bipyridin]-5-yl)-2-(2-cyanopropan-2-yl)isonicotinamide]
2.04	0.612	Cc1ncc(NC(=O)c2ccnc(C(C)(C)C#N)c2)cc1-c1cnc(N2C[C@H]3CC[C@@H](C2)O3)c(C#N)c1 [Example 88, N-(6′-((1R,5S)-8-oxa-3-azabicyclo[3,2,1]octan-3-yl)-5′-cyano-2-methyl-[3,3′-bipyridin]-5-yl)-2-(2-cyanopropan-2-yl)isonicotinamide]
3.07	0.661	Cc1ccc(NC(=O)c2ccnc(C(C)(C)C#N)c2)cc1-c1cnc(N)c(C#N)c1 [Example 2, N-(3-(6-amino-5-cyanopyridin-3-yl)-4-methylphenyl)-2-(2-cyanopropan-2-yl) isonicotinamide]
178	29.1	Cc1ncc(NC(=O)c2cnnc(C3CC3)c2)cc1-c1cnc(N2CC(C)(O)C2)c(C#N)c1 [Example 190, N-(5′-cyano-6′-(3-hydroxy-3-methylazetidin-1-yl)-2-methyl-[3,3′-bipyridin]-5-yl)-6-cyclopropyl-pyridazine-4-carboxamide]
7.91	1.75	Cc1ncc(NC(=O)c2ccnc(C(C)(C)F)c2)cc1-c1cnc(N2CC(C)(O)C2)c(C#N)c1 [Example 193, N-(5′-cyano-6′-(3-hydroxy-3-methylazetidin-1-yl)-2-methyl-[3,3′-bipyridin]-5-yl)-2-(2-fluoropropan-2-yl)isonicotinamide]
3.04	0.447	COCCNc1ncc(-c2cc(NC(=O)c3cnnc(C(C)(C)C#N)c3)ccc2C)cc1C#N [Example 201, N-(3-(5-cyano-6-((2-methoxyethyl)amino)pyridin-3-yl)-4-methylphenyl)-6-(2-cyanopropan-2-yl)pyridazine-4-carboxamide]
1.24	0.356	Cc1ccc(NC(=O)c2ccnc(C(C)(C)O)c2)cc1-c1cnc(N2CCOCC2)c(C#N)c1 [Example 165, N-(3-(5-cyano-6-morpholinopyridin-3-yl)-4-methylphenyl)-2-(2-hydroxypropan-2-yl)isonicotinamide]
1.96	0.401	CCn1cc(C(=O)Nc2ccc(C)c(-c3cnc(N(C)C)c(C#N)c3)c2)cc(C(F)(F)F)c1=O [Example 250, N-(3-(5-cyano-6-(dimethylamino)pyridin-3-yl)-4-methylphenyl)-1-ethyl-6-oxo-5-(trifluoromethyl)-1,6-dihydropyridine-3-carboxamide]
4.73	0.691	Cc1ccc(NC(=O)c2ccnc(C(F)F)c2)cc1-c1cnc(N2CC(C)(O)C2)c(C#N)c1 [Example 216, N-(3-(5-cyano-6-(3-hydroxy-3-methylazetidin-1-yl)pyridin-3-yl)-4-methylphenyl)-2-(difluoromethyl) isonicotinamide]
90.6	15.1	Cc1ncc(NC(=O)c2ccnc(C(C)(C)C#N)c2)cc1-c1cnc(-n2ccnc2C)c(C#N)c1 [Example 81, N-(5′-cyano-2-methyl-6′-(2-methyl-1H-imidazol-1-yl)-[3,3′-bipyridin]-5-yl)-2-(2-cyanopropan-2-yl)isonicotinamide]
4.11	0.588	COCCNc1ncc(-c2cc(NC(=O)c3cnnc(C(F)(F)F)c3)ccc2C)cc1C#N [Example 179, N-(3-(5-cyano-6-((2-methoxyethyl)amino)pyridin-3-yl)-4-methylphenyl)-6-(trifluoromethyl) pyridazine-4-carboxamide]
4.03	1.97	Cc1ncc(NC(=O)c2ccnc(C(C)(C)C#N)c2)cc1-c1cnc(N2CCNCC2)c(C#N)c1 [Example 71, N-(5′-cyano-2-methyl-6′-(piperazin-1-yl)-[3,3′-bipyridin]-5-yl)-2-(2-cyanopropan-2-yl)isonicotinamide]
3.11	0.464	Cc1ncc(NC(=O)c2ccnc(C(F)(F)F)c2)cc1-c1cnc(C2CCOCC2)c(C#N)c1 [Example 127, N-(5′-cyano-2-methyl-6′-(tetrahydro-2H-pyran-4-yl)-[3,3′-bipyridin]-5-yl)-2-(trifluoromethyl) isonicotinamide]
15	1.78	Cc1ncc(NC(=O)c2ccnc(C(C)(C)C#N)c2)cc1-c1cnc(N(C)C)c(C#N)c1 [Example 26, N-(5′-cyano-6′-(dimethylamino)-2-methyl-[3,3′-bipyridin]-5-yl)-2-(2-cyanopropan-2-yl)isonicotinamide]
